# Key:
# Format in all cases: cell-based
# [1] = test system: NCI-H524 human small cell lung cancer cells; experiment: H524 assay: inhibition of cell proliferation (CellTiter Glo); details: 2 h treatment, washout, additional 70 h incubation
# In short: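 Proliferation was measured by CellTiter Glo 70 h after a washout that followed a 2 h pulse of NDC. Doses were an 11-point, two-fold dilution series from 1 uM. IC50 was fitted with a four-parameter model to luminescence-based % inhibition relative to control cells.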
# SST2 = target: T1, SST2 (Homo sapiens, UniProt P30874); experiment: PathHunter CHO-K1 SST2 Internalization Assay; details: PathHunter CHO-K1 SST2 cells; 90 min at 37 C; luminescence; read-out: Internalization EC50
# T1 construct: host or cells: PathHunter CHO-K1 SST2 cells
# T1 sequence (P30874 whole entry): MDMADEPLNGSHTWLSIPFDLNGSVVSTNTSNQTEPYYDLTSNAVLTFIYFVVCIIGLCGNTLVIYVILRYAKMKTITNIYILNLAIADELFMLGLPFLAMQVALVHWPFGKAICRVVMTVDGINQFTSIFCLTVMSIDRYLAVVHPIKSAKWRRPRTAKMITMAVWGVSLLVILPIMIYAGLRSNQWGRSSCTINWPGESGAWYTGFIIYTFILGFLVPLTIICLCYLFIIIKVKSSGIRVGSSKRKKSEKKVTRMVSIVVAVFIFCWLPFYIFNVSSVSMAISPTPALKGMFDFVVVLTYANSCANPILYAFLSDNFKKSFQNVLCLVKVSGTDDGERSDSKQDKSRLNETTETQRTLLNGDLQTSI
# In short: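 Four-parameter nonlinear fits of background-corrected luminescence (duplicate means) gave IC50s. NDCs were serially diluted 1:3 over 11 points from a 10 uM final top concentration and incubated 90 min at 37 C with human SST2 CHO-K1 cells plated 48 h earlier at 2500/well. Beta-Glo read-out developed 60 min at RT.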
# [2] = target: T2, human somatostatin receptor subtype 2 (Homo sapiens, UniProt P30874); experiment: Functional assay for SSTR2 agonists (HTRF cAMP); details: CHO-K1 cells stably expressing human SST2; NKH477-stimulated cAMP; 20 min at 37 C; read-out: hSST2 cAMP Avg EC50
# T2 construct: expressed in transfected cells
# T2 sequence (P30874 whole entry): as above
# In short: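 Agonist activity read as fall in intracellular cAMP: HTRF 665/620 nm ratio regressed to a cAMP standard curve, EC50 fitted. Stable human SSTR2 CHO-K1 cells exposed 20 min at 37 °C to compound, final concentrations typically 0-10,000 nM.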
Compound,EC50 [1] [nM],EC50 (SST2) [nM],EC50 [2] [nM]
CC[C@H](C)[C@@H]([C@@H](CC(=O)N1CCC[C@H]1[C@H](OC)[C@@H](C)C(=O)N[C@H](C)[C@@H](O)c1ccccc1)OC)N(C)C(=O)[C@@H](NC(=O)[C@H](C(C)C)N(C)C(=O)OCc1ccc(NC(=O)[C@H](CCCNC(N)=O)NC(=O)[C@@H](NC(=O)[C@@H](CS(=O)(=O)O)NC(=O)CCOCCC(=O)NCCNc2ncc(-c3cc(C)cc(F)c3)c(N3CCC(N)CC3)c2-c2nc3ccc(Cl)cc3[nH]2)C(C)C)cc1C(=O)NCCN)C(C)C [Compound 28],120,11,0.074
CC[C@H](C)[C@@H]([C@@H](CC(=O)N1CCC[C@H]1[C@H](OC)[C@@H](C)C(=O)N[C@H](C)[C@@H](O)c1ccccc1)OC)N(C)C(=O)[C@@H](NC(=O)[C@H](C(C)C)N(C)C(=O)OCc1ccc(NC(=O)[C@H](C)NC(=O)[C@@H](NC(=O)CCOCCC(=O)NCCNc2ncc(-c3cc(C)cc(F)c3)c(N3CCC(N)CC3)c2-c2cc3ccc(Cl)cc3[nH]2)C(C)C)c(O[C@@H]2O[C@H](C(=O)O)[C@@H](O)[C@H](O)[C@H]2O)c1)C(C)C [Compound 115],5.1,5.9,0.075
CC[C@H](C)[C@@H]([C@@H](CC(=O)N1CCC[C@H]1[C@H](OC)[C@@H](C)C(=O)N[C@H](C)[C@@H](O)c1ccccc1)OC)N(C)C(=O)[C@@H](NC(=O)[C@H](C(C)C)N(C)C(=O)OCc1ccc(NC(=O)[C@H](CCCNC(N)=O)NC(=O)[C@@H](NC(=O)c2cc(NCCOCCC(=O)NCCNc3ncc(-c4cc(C)cc(F)c4)c(N4CCC(N)CC4)c3-c3nc4ccc(Cl)cc4[nH]3)cc(C(=O)NCCS(=O)(=O)O)c2)C(C)C)cc1)C(C)C [Compound 187],1800,3.7,0.5
CC[C@H](C)[C@@H]([C@@H](CC(=O)N1CCC[C@H]1[C@H](OC)[C@@H](C)C(=O)N[C@H](C)[C@@H](O)c1ccccc1)OC)N(C)C(=O)[C@@H](NC(=O)[C@H](C(C)C)N(C)C(=O)OCc1ccc(NC(=O)[C@H](CCCNC(N)=O)NC(=O)[C@@H](NC(=O)CCOCCC(=O)NCCNc2ncc(-c3cc(C)cc(F)c3)c(N3CCC(N)CC3)c2-c2nc3ccc(Cl)cc3[nH]2)C(C)C)c(O[C@H]2[C@H](O)[C@@H](O)[C@H](O)[C@@H](C(=O)N(C)CC(=O)N(C)CC(=O)N(C)CC(=O)O)[C@H]2O)c1)C(C)C [Compound 236],9.9,5.1,0.14
CC[C@H](C)[C@@H]([C@@H](CC(=O)N1CCC[C@H]1[C@H](OC)[C@@H](C)C(=O)N[C@H](C)[C@@H](O)c1ccccc1)OC)N(C)C(=O)[C@@H](NC(=O)[C@H](C(C)C)N(C)C(=O)OCc1ccc(NC(=O)[C@H](CCCNC(N)=O)NC(=O)[C@@H](NC(=O)c2cn(CCOCCC(=O)NCCNc3ncc(-c4cc(C)cc(F)c4)c(N4CCC(N)CC4)c3-c3nc4ccc(Cl)cc4[nH]3)nn2)C(C)C)c(O[C@@H]2C[C@H](C(=O)O)[C@@H](O)[C@H](O)[C@H]2O)c1)C(C)C [Compound 131],1600,4.5,0.34
CC[C@H](C)[C@@H]([C@@H](CC(=O)N1CCC[C@H]1[C@H](OC)[C@@H](C)C(=O)N[C@H](C)[C@@H](O)c1ccccc1)OC)N(C)C(=O)[C@@H](NC(=O)[C@H](C(C)C)N(C)C(=O)OCc1ccc(NC(=O)[C@H](CCCNC(N)=O)NC(=O)[C@@H](NC(=O)[C@H](CCC(=O)O)NC(=O)CCOCCOCCOCCOCCC(=O)NCCNc2ncc(-c3cc(C)cc(F)c3)c(N3CCC(N)CC3)c2-c2nc3ccc(Cl)cc3[nH]2)C(C)C)cc1C(=O)N1CC(N)C1)C(C)C [Compound 65],17,3.4,0.074
CC[C@H](C)[C@@H]([C@@H](CC(=O)N1CCC[C@H]1[C@H](OC)[C@@H](C)C(=O)N[C@H](C)[C@@H](O)c1ccccc1)OC)N(C)C(=O)[C@@H](NC(=O)[C@H](C(C)C)N(C)C(=O)OCc1ccc(NC(=O)[C@H](C)NC(=O)[C@@H](NC(=O)[C@@H](CS(=O)(=O)O)NC(=O)CCOCCC(=O)NCCNc2ncc(-c3cc(C)cc(F)c3)c(N3CCC(N)CC3)c2-c2nc3ccc(Cl)cc3[nH]2)C(C)C)c(O[C@@H]2O[C@H](C(=O)NCCN)[C@@H](O)[C@H](O)[C@H]2O)c1)C(C)C [Compound 41],40,9,0.081
CC[C@H](C)[C@@H]([C@@H](CC(=O)N1CCC[C@H]1[C@H](OC)[C@@H](C)C(=O)N[C@H](C)[C@@H](O)c1ccccc1)OC)N(C)C(=O)[C@@H](NC(=O)[C@H](C(C)C)N(C)C(=O)OCc1ccc(NC(=O)[C@H](CCCNC(N)=O)NC(=O)[C@@H](NC(=O)CCOCCC(=O)NCCNc2ncc(-c3cc(C)cc(F)c3)c(N3CCC(N)CC3)c2-c2nc3ccc(Cl)cc3[nH]2)C(C)C)c(O[C@@H]2O[C@H](C(=O)N3CCNCC3)[C@@H](O)[C@H](O)[C@H]2O)c1)C(C)C [Compound 222],1.9,4.3,0.11
CC[C@H](C)[C@@H]([C@@H](CC(=O)N1CCC[C@H]1[C@H](OC)[C@@H](C)C(=O)N[C@H](C)[C@@H](O)c1ccccc1)OC)N(C)C(=O)[C@@H](NC(=O)[C@H](C(C)C)N(C)C(=O)OCc1ccc(NC(=O)[C@H](C)NC(=O)[C@@H](NC(=O)CCOCCC(=O)N(C)CC(=O)NCCNc2ncc(-c3cc(C)cc(F)c3)c(N3CCC(N)CC3)c2-c2nc3ccc(Cl)cc3[nH]2)C(C)C)c(O[C@@H]2O[C@H](C(=O)NCC(=O)O)[C@@H](O)[C@H](O)[C@H]2O)c1)C(C)C [Compound 42],25,3.8,0.1
CC[C@H](C)[C@@H]([C@@H](CC(=O)N1CCC[C@H]1[C@H](OC)[C@@H](C)C(=O)N[C@H](C)[C@@H](O)c1ccccc1)OC)N(C)C(=O)[C@@H](NC(=O)[C@H](C(C)C)N(C)C(=O)OCc1ccc(NC(=O)[C@H](CCCNC(N)=O)NC(=O)[C@@H](NC(=O)[C@H](CCC(N)=O)NC(=O)CCOCCC(=O)NCCNc2ncc(-c3cc(C)cc(F)c3)c(N3CCC(N)CC3)c2-c2nc3ccc(Cl)cc3[nH]2)C(C)C)cc1C(=O)O)C(C)C [Compound 5],520,2.2,0.29
CC[C@H](C)[C@@H]([C@@H](CC(=O)N1CCC[C@H]1[C@H](OC)[C@@H](C)C(=O)N[C@H](C)[C@@H](O)c1ccccc1)OC)N(C)C(=O)[C@@H](NC(=O)[C@H](C(C)C)N(C)C(=O)OCc1ccc(NC(=O)[C@H](CCCNC(N)=O)NC(=O)[C@@H](NC(=O)[C@@H](CS(=O)(=O)O)NC(=O)CCOCCC(=O)NCCNc2ncc(-c3cc(C)cc(F)c3)c(N3CCC(N)CC3)c2-c2nc3ccc(Cl)cc3[nH]2)C(C)C)cc1C(=O)N1CC(C(=O)O)C1)C(C)C [Compound 77],130,4.2,0.092
CC[C@H](C)[C@@H]([C@@H](CC(=O)N1CCC[C@H]1[C@H](OC)[C@@H](C)C(=O)N[C@H](C)[C@@H](O)c1ccccc1)OC)N(C)C(=O)[C@@H](NC(=O)[C@H](C(C)C)N(C)C(=O)OCc1ccc(NC(=O)[C@H](CCCNC(N)=O)NC(=O)[C@@H](NC(=O)C[C@@H](N)C(=O)NCCOCCC(=O)NCCNc2ncc(-c3cc(C)cc(F)c3)c(N3CCC(NC)CC3)c2-c2nc3ccc(Cl)cc3[nH]2)C(C)C)c(O[C@@H]2O[C@H](C(=O)O)[C@@H](O)[C@H](O)[C@H]2O)c1)C(C)C [Compound 121],19,5.3,0.14
CC[C@H](C)[C@@H]([C@@H](CC(=O)N1CCC[C@H]1[C@H](OC)[C@@H](C)C(=O)N[C@H](C)[C@@H](O)c1ccccc1)OC)N(C)C(=O)[C@@H](NC(=O)[C@H](C(C)C)N(C)C(=O)OCc1ccc(NC(=O)[C@H](C)NC(=O)[C@@H](NC(=O)CCOCCC(=O)NCCNc2ncc(-c3cc(C)cc(F)c3)c(N3CC[C@H]4NCCO[C@@H]4C3)c2-c2nc3c(F)cc(F)cc3[nH]2)C(C)C)c(O[C@@H]2O[C@H](C(=O)O)[C@@H](O)[C@H](O)[C@H]2O)c1)C(C)C [Compound 114],4600,850,85
CC[C@H](C)[C@@H]([C@@H](CC(=O)N1CCC[C@H]1[C@H](OC)[C@@H](C)C(=O)N[C@H](C)[C@@H](O)c1ccccc1)OC)N(C)C(=O)[C@@H](NC(=O)[C@H](C(C)C)N(C)C(=O)OCc1ccc(NC(=O)[C@H](CCCNC(N)=O)NC(=O)[C@@H](NC(=O)CCOCCC(=O)NCCNc2ncc(-c3cc(C)cc(F)c3)c(N3CCC(N)CC3)c2-c2nc3ccc(Cl)cc3[nH]2)C(C)C)c(O[C@@H]2O[C@H](C(=O)NCCOCCC(=O)O)[C@@H](O)[C@H](O)[C@H]2O)c1)C(C)C [Compound 230],14,4.2,0.095
CC[C@H](C)[C@@H]([C@@H](CC(=O)N1CCC[C@H]1[C@H](OC)[C@@H](C)C(=O)N[C@H](C)[C@@H](O)c1ccccc1)OC)N(C)C(=O)[C@@H](NC(=O)[C@H](C(C)C)N(C)C(=O)OCc1ccc(NC(=O)[C@H](CCCNC(N)=O)NC(=O)[C@@H](NC(=O)CCOCCOCCOCCOCCC(=O)N(C)CC(=O)NCCNc2ncc(-c3cc(C)cc(F)c3)c(N3CCC(N)CC3)c2-c2nc3ccc(Cl)cc3[nH]2)C(C)C)c(OCC(=O)O)c1)C(C)C [Compound 24],100,20,0.2

# From US20260007758A1, “SO[…]-2 RECEPTOR (SST2R) NON-PEPTIDE DRUG CONJUGATES AND USES THEREOF” (Crinetics Pharmaceuticals, Inc., priority 2024, published 2026)
